Consider 13 molecules from patent US12539284B2, “Aminoxy acid-based anti-cancer stem cell compounds and methods thereof” (Westlake University, priority 2019, dated 2026).

Each structure is given as a SMILES string. Like-named read-outs stand apart in the source and are kept apart here.

One test deals with HEY A8 CSCs (HEY A8 SP). Nature of the test: Toxicity / cell viability (CellTiter-Glo) on HEY A8 spheres (CSCs). The class given is cell-based, human. As to conditions: for selectivity towards ovarian CSCs over ovarian cancer cells and normal cells: from IC50 values, FIG. 4 and Table 1. The procedure:
Aminoxy acids were synthesized by the standard peptide coupling procedures. The CSCs are obtained by spheroids culturing under suspension condition. It is confirmed that these spheres indeed contain significant higher population of cells with CD133 antigenic phenotype, which has been reported can represent ovarian CSCs (FIG. 2). After treatment with compounds for 48 h, the cell viability of CSCs was measured by using CELLTITER-GLO® luminescent reagent. Compound sff-3-85 (“Example 2”) were used at the dose of 10 μM, all the other compounds were used at the concentration of 5 μM. All experiments were performed three times and data is presented as mean±SD.
(§1) Cell Cultures Human ovarian carcinoma cell lines HEY A8 and SKOV3 were gifts from Professor Alice Wong's group (The University of Hong Kong). Cells were grown in Dulbecco's Modified Eagle (DMEM) medium supplemented with 10% FBS and 1% penicillin/streptomycin at 37° C. in a humidified atmosphere containing […] CO2. Isolation and culture of spheres were performed in serum-free stem-cell-selective condition as described in literature Ip etl. Oncogene 2014, 5, 9133-9149. Briefly, 1-2 weeks after plating, non-adherent spherical clusters of cells could be observed and were separated from single cells by low speed centrifugation. After 8th to 10th passages, the non-adherent spherical clusters of cells appeared as distinct spheres. Using this selection condition, HEY A8 spheres (HEY A8 SP) or SKOV3 spheres (SKOV3 SP) could be enzymatically dissociated and reformed into spheres within 3 days under stem-cell-selective condition. To allow differentiation, dissociated sphere cells were plated on tissue culture plates in medium (MCDB 105:M199=1:1) supplemented with 10% FBS and 1% PS.
(§2) HEY A8 SP cells (5×10^4) were plated in triplicate in 10 mL serum-free MCDB105 medium in 100-mm Petri dish for 7 days to form spheres. Compound at the final concentration of 5 μM was added. The cells were further incubated at 37° C. for 48 h. After that cells were collected by centrifugation and the medium was removed. Then 100 μL CellTiter-Glo® Luminescent Cell Viability reagent was added into each tube, which was incubated for 10 min with shaking. After that, the reagent was transferred into 96-well plates and cell viability was measured using a microplate reader (SpectraMax 340PC 384, Molecular Devices).
as §2, with “A8 SP cells or SKOV3” for “A8”, “Then drugs” for “Compound”, “different” for “the final”, “were” for “of 5 μM was”, “μL of” for “μL”

For test [1], the system named is Huh 7 cancer stem cells (CD133+). Kind of test: Cell viability (CellTiter-Glo) of sorted Huh 7 CD133+ cells. The class given is cell-based. The settings on record: 48 h. How it is done:
(§3) Huh-7 cells were stained with PE-conjugated CD133 antibody (HCC cancer stem cell marker) according to the manufacturer's instructions. Then CD133^+ cells (Huh 7 cancer stem cells) and CD133− cells were sorted by flow cytometry and seeded into 96-well plate with fresh DMEM medium. After 24 h, medium was changed to fresh medium with compound sff-2-112 (“Example 1”) or sff-2-124 (“Example 3”) at different doses. After 48 h, cell viability was analyzed by CellTiter-Glo luminescent agent.
(In general: Cellular ATP, detected with luciferase, serves as a proxy for viable cell number.)

The test system of the next test is MDCK. Nature of the test: Toxicity against normal cell line MDCK. The class given is cell-based. An excerpt:
(§4) Fourteen compounds including aminoxy acid monomers and dipeptides have been identified to show toxicity against HEY A8 CSCs. The half maximal inhibitory concentration (IC50) values of compounds sff-2-112, sff-2-124, sff-2-132 and sff-2-100 towards adherent cancer HEY A8, SKOV3 cells and CSCs were further determined. […] Especially compound sff-2-132, its selectivity to CSCs is up to 60-fold higher than that to cancer cells. Their toxicity against other normal cell lines NIH3T3, HEK293 and MDCK were also tested and the IC50 values were summarized in Table 1.

The test system of a further test is HEK293. Kind of test: Toxicity against normal cell line HEK293. Format: cell-based.
Source text: as §4

A further test relates to SKOV3 cancer cells. Kind of test: Cell viability (CellTiter-Glo) on adherent SKOV3 cancer cells. Format: cell-based, human. The settings on record: 48 h incubation. The procedure:
as §1
(§5) HEY A8 or SKOV3 cancer Cells were plated in triplicate in 0.1 mL full medium in 96-well plates for 24 h. After that, the medium was changed to the fresh prepared medium with various concentrations of compounds. Cells were incubated for another 48 h. Then the cell viability was measured by CellTiter-Glo® Luminescent Cell Viability reagent according to the manufacture's instruction. The luminescence at 550 nm was measured using a microplate reader (SpectraMax 340PC 384, Molecular Devices).

Another test concerns HEY A8 cancer cells. Kind of test: Cell viability (CellTiter-Glo) on adherent HEY A8 cancer cells. Format: cell-based, human. As to conditions: read-out: IC50 Cancer Cell HeyA8. The procedure: as §1, §5
A further test deals with Huh 7 CD133- cells. Kind of test: Cell viability (CellTiter-Glo) of sorted Huh 7 CD133- cells. Format: cell-based. As to conditions: 48 h, different doses. The procedure:
as §3

The test system of the next test is NIH3T3. Kind of test: Toxicity against normal cell line NIH3T3. The class given is cell-based.
Source text: as §4

Test [2] concerns HEY A8 CSCs. Nature of the test: Apoptosis, Annexin V / PI flow cytometry, CSCs. The class given is cell-based, human. As to conditions: 5 μM, 2 days; DMSO 4.92%. How it is done: A suspension of HEY A8 cells at the concentration of 5×10^4 cells/mL in DMEM medium were seeded into 60-mm cell culture dishes. Cells were incubated at 37° C. in a humidified atmosphere containing 5% CO2 for 24 h followed by the addition of 4 mL fresh medium or medium containing compound sff-2-112 (“Example 1”) or sff-2-132 (“Example 4”) at different concentration. Medium containing 0.1% DMSO was used as negative control. After 2 days, the medium was aspirated and cells were washed with cold PBS twice, and then stained with PI and Annexin V according to the manufacture's instruction (Dead Cell Apoptosis Kit with Annexin V Alexa Fluor™ 488 & Propidium Iodide, Thermo Fisher). Cells were analyzed by flow cytometry (BD FACS CantoII Analyzer).

The test system of test [3] is HEY A8 CSCs. Nature of the test: In vivo tumor seeding ability of pretreated HEY A8 CSCs. The settings on record: CSCs pretreated 2 days in vitro, 10^6 cells injected subcutaneously in mice, 25 days. How it is done:
In vivo tumor seeding ability of cells after treatment with compound sff-2-112 (“Example 1”) or sff-2-132 (“Example 4”) was evaluated. Taxol was used as a negative control. For this experiment, HEY A8 CSCs were pretreated with sff-2-112 (“Example 1”), sff-2-132 (“Example 4”) or Taxol for 2 days in suspension medium, respectively. Then cells were allowed to proliferate in full medium in the absence of drugs for 10 days. After that, 10^6 cells were injected into mice subcutaneously. Tumor size was measured for 25 days after injection.

Another test relates to HEY A8 cells. Nature of the test: Population of CD133+ cells by flow cytometry (PE-conjugated CD133 antibody). The settings on record: Paclitaxel 100 nM, 3 days; control 21.8%. Format: cell-based, human. The procedure:
CD133 has been reported to be a marker of ovarian CSCs. After cells treated with synthetic molecule, the population of CD133^+ cells were measured. HEY A8 cells were treated with taxol (100 nM), compound sff-2-112 (“Example 1”) or sff-2-132 (“Example 4”) at the concentration of 15 μM. Medium containing 0.1% DMSO was used as a negative control.
A suspension of HEY A8 cells at the concentration of 2.5×10^4 cells/mL in DMEM medium were seeded into 60-mm cell culture dishes. Cells were incubated at 37° C. in a humidified atmosphere containing 5% CO2 for 24 h, followed by the addition of 4 mL fresh medium or medium containing Paclitaxel (100 nM), sff-2-112 (15 μM) or compound sff-2-132 (15 μM). Medium containing 0.1% DMSO was used as a negative control. After 3 days, the medium was removed and cells were washed with cold PBS twice, and then stained with PE-conjugated CD133 antibody according to the manufacture's instruction. The fluorescence was analyzed by flow cytometry.
For orientation: A flow cytometer gives signals particle by particle.

As to `CCC(C)[C@@H](ONC(=O)c1cc(C(F)(F)F)cc(C(F)(F)F)c1)C(=O)Nc1ccccc1` (stereo partly shown) [Amy-1-4], the “cell viability of HEY A8 CSCs (toxicity)” value in the test on HEY A8 CSCs (HEY A8 SP) (compound 5 μM, 48 h) was “significantly decreased the cell viability”.
For `O=C(NO[C@H](COCc1ccccc1)C(=O)NOc1ccccc1)c1cc(C(F)(F)F)cc(C(F)(F)F)c1` [FPM-1-187], the “cell viability of HEY A8 CSCs (toxicity)” value in the test with HEY A8 CSCs (HEY A8 SP) (compound 5 μM, 48 h) is given as “significantly decreased the cell viability”.
Still for that read-out and setting: with `CC(C)(C)Oc1ccc(C[C@@H](ONC(=O)c2cc(C(F)(F)F)cc(C(F)(F)F)c2)C(=O)Nc2ccccc2)cc1` [sff-3-101] the entry was “significantly decreased the cell viability”.
The same measure, in the same setting: next, `CC(OCc1ccccc1)[C@@H](ONC(=O)c1cc(C(F)(F)F)cc(C(F)(F)F)c1)C(=O)Nc1ccccc1` (stereo partly shown) [sff-3-98-2]: “significantly decreased the cell viability”.
For orientation: IC50 means the concentration needed to halve the response being measured. Regarding `CC(C)C[C@@H](ONC(=O)c1cc(C(F)(F)F)cc(C(F)(F)F)c1)C(=O)Nc1ccccc1` [sff-2-124], the “toxicity to huh7 CD133+ population compared with CD133- cells” value in [1] is “higher”. Moreover, the “death of Huh 7 CD133+ cells” value in [1] (different doses) is reported as “induce the death”. The IC50 came out at 13.2 ± 0.9 µM with MDCK; 67.2 ± 4.2 µM in the test with HEK293; 18.6 ± 5.1 µM in the test with SKOV3 cancer cells; 20.8 ± 0.9 µM in the test on HEY A8 cancer cells (48 h incubation); 15.1 ± 0.5 µM in the test with NIH3T3. Further, the “death of Huh 7 CD133- cells” value in the test on Huh 7 CD133- cells is recorded as “induce the death”. For the same molecule, the “cell viability of HEY A8 CSCs (toxicity)” value in the test with HEY A8 CSCs (HEY A8 SP) (compound 5 μM, 48 h) was “significantly decreased the cell viability”. Also, the “selectivity towards ovarian CSCs over ovarian cancer cells and normal cells” value in the test on HEY A8 CSCs (HEY A8 SP) is “selectively induce the death of ovarian CSCs”.
In the case of `O=C(NO[C@H](COCc1ccccc1)C(=O)Nc1ccc(F)cc1)c1cc(C(F)(F)F)cc(C(F)(F)F)c1` [sff-3-86], in the test on HEY A8 CSCs [2], the “Annexin V positive cells, CSCs” value came out at 30.4%. For the same molecule, in the test with HEY A8 CSCs (HEY A8 SP) (compound 5 μM, 48 h), the “cell viability of HEY A8 CSCs (toxicity)” value is reported as “significantly decreased the cell viability”.
Take `O=C(NO[C@H](Cc1cc2ccccc2[nH]1)C(=O)Nc1ccccc1)c1cc(C(F)(F)F)cc(C(F)(F)F)c1` [Amy-1-8]: the “cell viability of HEY A8 CSCs (toxicity)” value with HEY A8 CSCs (HEY A8 SP) (compound 5 μM, 48 h) is recorded as “significantly decreased the cell viability”.
Same read-out and setting: with `CC(C)COC(=O)[C@@H](COCc1ccccc1)ONC(=O)c1cc(C(F)(F)F)cc(C(F)(F)F)c1` [sff-3-87] the entry was “significantly decreased the cell viability”.
For the molecule `C[C@H](ONC(=O)c1cc(C(F)(F)F)cc(C(F)(F)F)c1)C(=O)Nc1ccccc1` [sff-3-85], the “cell viability of HEY A8 CSCs (toxicity)” value with HEY A8 CSCs (HEY A8 SP) (compound 10 μM, 48 h) is “significantly decreased the cell viability”.
Consider `CC(C)(C)OC[C@@H](ONC(=O)c1cc(C(F)(F)F)cc(C(F)(F)F)c1)C(=O)Nc1ccccc1` [sff-3-100], for which the “cell viability of HEY A8 CSCs (toxicity)” value in the test on HEY A8 CSCs (HEY A8 SP) (compound 5 μM, 48 h) is reported as “significantly decreased the cell viability”.
As for `O=C(NO[C@H](COCc1ccccc1)C(=O)NO[C@@H](Cc1ccccc1)C(=O)Nc1ccccc1)c1cc(C(F)(F)F)cc(C(F)(F)F)c1` [sff-2-100], the IC50 was determined as 18 ± 0.7 µM in the test with MDCK (Canis lupus familiaris, MDCK); 18.3 ± 0.6 µM in the test with HEK293 (Homo sapiens, HEK293); 22.4 ± 1 µM in the test on HEY A8 cancer cells (Homo sapiens, HEY A8, 48 h incubation); 2.8 ± 0.9 µM in the test with NIH3T3 (Mus musculus, NIH3T3); 2.8 ± 0.9 µM in the test on HEY A8 CSCs (HEY A8 SP) (Homo sapiens, HEY A8 spheres, 48 h incubation, read-out: IC50 Cancer Stem Cell HeyA8 SP). The “rank of toxicity among the 14 molecules on HEY A8 CSCs” value with HEY A8 CSCs (HEY A8 SP) (5 μM, 48 h) is “highest toxicity”. Besides, in the test on HEY A8 CSCs (HEY A8 SP) (compound 5 μM, 48 h), the “cell viability of HEY A8 CSCs (toxicity)” value is on record as “significantly decreased the cell viability”. Besides, in the test with HEY A8 CSCs (HEY A8 SP), the “selectivity towards ovarian CSCs over ovarian cancer cells and normal cells” value is recorded as “selectively induce the death of ovarian CSCs”.
On to `O=C(NO[C@H](COCc1ccccc1)C(=O)Nc1ccccc1)c1ccc(C(F)(F)F)cc1` [sff-3-91], for which the “cell viability of HEY A8 CSCs (toxicity)” value with HEY A8 CSCs (HEY A8 SP) (compound 5 μM, 48 h) is “significantly decreased the cell viability”.
Regarding `CC(=O)O[C@H]1C(=O)[C@@]2(C)[C@H]([C@H](OC(=O)c3ccccc3)[C@]3(O)C[C@H](OC(=O)[C@H](O)[C@@H](NC(=O)c4ccccc4)c4ccccc4)C(C)=C1C3(C)C)[C@]1(OC(C)=O)CO[C@@H]1C[C@@H]2O` [paclitaxel, reference compound], the “tumor-seeding ability / tumor size of pretreated cells” value in the test on HEY A8 CSCs [3] is listed as “resistant”. For the same molecule, the “population of CD133+ cells after treatment” value in the test with HEY A8 cells is 31.6%.
